Reference: US12544365B2, “Pharmaceutical combination of an EP4 antagonist and immune checkpoint inhibitors for the treatment of tumours” (ROTTAPHARM BIOTECH S.R.L., priority 2019, dated 2026)

Test system: RANK-L gene expression in MDA-MB-231 cells
Assay: RANK-L gene expression in MDA-MB-231 cells stimulated with PGE2, RT-PCR
Format: cell-based, human
Settings: 10 μM compound + 10 μM PGE2, 24 hours
Procedure: The human mammary gland adenocarcinoma MDA-MB-231 cells were obtained from ATCC and grown according to the instructions provided.
Cells were treated with 10 μM PGE2+Compound 1 10 μM for 24 hours. Total RNA was purified using the ABI Prism 6100 Nucleic Acid PrepStation (Applied Biosystems, Foster City, CA, USA) and retrotranscribed using the High-Capacity cDNA Reverse Transcription Kit (Thermo Fisher Scientific). RT-PCR analysis was performed using the Applied Biosystems 7500 Fast Real-Time PCR System using specific TaqMan assays (Hs00243522_m1; Thermo Fisher Scientific) and, as an endogenous control, the 18S Pre-Developed TaqMan® Assay (Thermo Fisher Scientific). The data analysis, with normalisation on 18S amplified values, was done following Thermo Fisher Scientific specific instructions for gene expression relative quantification. All individual data are the result of at least three different analyses for each sample.
MDA-MB-231 cells treated with 10 μM PGE2+Compound 1 10 μM for 24 hours and the levels of RANKL gene expression were evaluated by quantitative RT-PCR.

O=C([O-])c1ccc(C2(NC(=O)[C@H]3CC4(CCN3Cc3ccc(C(F)(F)F)cc3)CC4)CC2)cc1.[Na+] [Compound 1, sodium (R)-4-(1-(6-(4-(trifluoromethyl)benzyl)-6-azaspiro[2.5]octane-5-carboxamido)cyclopropyl)benzoate]
RANK-L gene expression vs 10 μM PGE2: markedly decreased
